Laboratory results from paper PMC10388363, “Novel 1,4-Dihydropyridines as Specific Binders and Activators of SIRT3 Impair Cell Viability and Clonogenicity and Downregulate Hypoxia-Induced Targets in Cancer Cells” (Journal of Medicinal Chemistry, 2023).

Assays:
Format in all cases: biochemical
human SIRT1 = molecular target: T1, human SIRT1 (Homo sapiens, UniProt Q96EB6); experiment: PncA/GDH-coupled deacylation assay, SIRT1 activation (p53-acK381 substrate); conditions: for effect on SIRT1: 10 μM compound; for SIRT1 activation: 100 μM compound
T1 construct: using constructs in pET15b (Sirt1); His tag (N, cleaved yes); made in house; host or cells: Escherichia coli
T1 sequence (Q96EB6 1-747): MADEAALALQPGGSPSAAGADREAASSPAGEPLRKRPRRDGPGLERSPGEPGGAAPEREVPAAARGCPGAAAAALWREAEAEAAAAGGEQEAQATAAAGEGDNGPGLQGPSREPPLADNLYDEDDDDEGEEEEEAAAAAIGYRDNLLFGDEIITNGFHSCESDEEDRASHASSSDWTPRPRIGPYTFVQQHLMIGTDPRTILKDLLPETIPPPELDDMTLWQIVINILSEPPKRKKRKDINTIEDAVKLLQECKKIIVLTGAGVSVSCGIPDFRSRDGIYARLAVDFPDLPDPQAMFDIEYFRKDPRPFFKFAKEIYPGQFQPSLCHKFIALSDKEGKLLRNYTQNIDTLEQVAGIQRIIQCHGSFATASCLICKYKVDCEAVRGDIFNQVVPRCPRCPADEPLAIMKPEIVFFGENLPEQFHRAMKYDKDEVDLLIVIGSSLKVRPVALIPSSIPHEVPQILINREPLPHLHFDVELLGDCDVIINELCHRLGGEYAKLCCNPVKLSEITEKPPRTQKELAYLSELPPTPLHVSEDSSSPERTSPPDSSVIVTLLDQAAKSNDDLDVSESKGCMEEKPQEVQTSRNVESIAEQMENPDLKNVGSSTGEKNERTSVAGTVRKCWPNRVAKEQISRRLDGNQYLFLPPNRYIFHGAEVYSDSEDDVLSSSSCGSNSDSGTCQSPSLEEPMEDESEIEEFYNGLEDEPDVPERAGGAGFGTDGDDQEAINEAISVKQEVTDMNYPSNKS
Protocol: (§1) To avoid artifacts and other non-specific effects, instead of the “Fluor-de-Lys” (FdL) substrate, we used a PncA/GDH-coupled deacylation assay by measuring the NADPH oxidation to NADP^+ that relies on isoform-specific non-modified physiological acetyl or succinyl substrates [p53-acK381 for SIRT1, α-tubulin-[…] for SIRT2, acetyl-CoA synthetase 2 (ACS2)-acK642 for SIRT3, and CPS1-succK537 for SIRT5].[59] The assays were carried out using the 1,4-DHP derivatives 2a–n and 3a–d against SIRT3, including the prototype compounds 2 and 3 as positive controls.
(§2) N-terminally his-tagged human sirtuins were expressed in Escherichia coli using constructs in pET15b (Sirt1) or pET151D/Topo (Sirt3-114-380 and Sirt5-34-302).[4],[59],[61] Sirt2-43-356 was expressed from a modified pET19b containing a TEV protease cleavage site and an N-terminal SUMO-tag.[59],[79] Proteins were expressed and purified as described elsewhere.[59],[61],[79]−[81] In brief, proteins were expressed in E. coli, crude extracts were cleared by centrifugation, and the proteins were affinity purified using NiNTA beads.
(§3) Sirtuin deacylation activities were analyzed by using a coupled enzymatic assay as described in.[59],[82] For initial modulation screenings, substrate peptide specificity analysis, and compound titrations, 1.5 μM sirtuin was incubated with 50 μM substrate peptide and 100 μM NAD^+ in absence or presence of 10 μM, 100 μM or the indicated concentration of 1,4-DHP at a final DMSO concentration of 5%. For kinetic experiments, 1.5 μM sirtuin was incubated with saturating concentrations of either substrate peptide (0.4 mM) or NAD^+ (2 mM), with the second substrate’s concentration being varied in absence or presence of 200 μM 1,4-DHP at a final concentration of 5% DMSO. Potential 1,4-DHP effects on the coupled enzymes GDH and nicotinamidase were tested in control assays containing 50 μM NAM instead of the substrate peptide.

human SIRT5 = molecular target: T2, human SIRT5 (Homo sapiens, UniProt Q9NXA8); experiment: PncA/GDH-coupled deacylation assay, SIRT5 activation (CPS1-succK537 substrate); conditions: for effect on SIRT5: 10 μM compound; for SIRT5 activation: 100 μM compound
T2 construct: pET151D/Topo (Sirt3-114-380 and Sirt5-34-302); His tag (N, cleaved yes); made in house; host or cells: Escherichia coli
T2 sequence (Q9NXA8 34-302): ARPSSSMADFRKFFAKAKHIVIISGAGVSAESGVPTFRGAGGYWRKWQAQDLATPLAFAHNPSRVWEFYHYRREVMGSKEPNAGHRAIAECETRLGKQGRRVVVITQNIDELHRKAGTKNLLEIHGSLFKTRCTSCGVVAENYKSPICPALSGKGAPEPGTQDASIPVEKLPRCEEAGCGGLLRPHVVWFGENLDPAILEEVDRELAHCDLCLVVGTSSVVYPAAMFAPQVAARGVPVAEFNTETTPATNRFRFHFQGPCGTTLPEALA
Protocol: as §1, §2, §3

human SIRT2 = molecular target: T3, human SIRT2 (Homo sapiens, UniProt Q8IXJ6); experiment: PncA/GDH-coupled deacylation assay, SIRT2 activation (α-tubulin-acK25 substrate); conditions: for effect on SIRT2: 10 μM compound; for SIRT2 activation: 100 μM compound
T3 construct: Sirt2-43-356 was expressed from a modified pET19b; SUMO-tag (with TEV protease cleavage site) (N, cleaved yes); His tag (N, cleaved yes); made in house; host or cells: Escherichia coli
T3 sequence (Q8IXJ6 43-356): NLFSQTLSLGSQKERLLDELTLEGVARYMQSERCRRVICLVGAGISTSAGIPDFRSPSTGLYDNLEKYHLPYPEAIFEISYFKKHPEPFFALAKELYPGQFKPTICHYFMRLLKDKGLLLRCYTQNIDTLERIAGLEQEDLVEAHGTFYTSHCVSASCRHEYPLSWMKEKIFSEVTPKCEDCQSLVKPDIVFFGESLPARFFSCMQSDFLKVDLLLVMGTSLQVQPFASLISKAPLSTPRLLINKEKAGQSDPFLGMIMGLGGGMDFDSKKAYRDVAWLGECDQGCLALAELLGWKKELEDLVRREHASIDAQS
Protocol: as §1, §2, §3

With `CCOC(=O)C1=CN(C(=O)c2ccc(OC)c(OC)c2)C=C(C(=O)OCC)C1c1ccccc1` [Compound 3c, Diethyl 1-(3,4-dimethoxybenzoyl)-4-phenyl-1,4-dihydropyridine-3,5-dicarboxylate] the “effect on SIRT1” value (human SIRT1) was “negligible effects”, the SIRT1 activation (human SIRT1) was 156% and the “effect on SIRT5” value (human SIRT5) was “negligible effects”. For the same molecule, the SIRT5 activation (human SIRT5) was 160%, the “effect on SIRT2” value (human SIRT2) was “negligible effects” and the SIRT2 activation (human SIRT2) was 136%.

For `CCOC(=O)C1=CN(C(=O)c2cc(OC)cc(OC)c2)C=C(C(=O)OCC)C1c1ccccc1` [Compound 3d, Diethyl 1-(3,5-dimethoxybenzoyl)-4-phenyl-1,4-dihydropyridine-3,5-dicarboxylate], the “effect on SIRT1” value (human SIRT1) was “negligible effects”, the SIRT1 activation (human SIRT1) was 130% and the “effect on SIRT5” value (human SIRT5) was “negligible effects”. For the same molecule, the “effect on SIRT2” value (human SIRT2) was “negligible effects”.

In the case of `CCOC(=O)C1=CN(C(=O)c2cccc(OC)c2)C=C(C(=O)OCC)C1c1ccccc1` [Compound 3a, Diethyl 1-(3-methoxybenzoyl)-4-phenyl-1,4-dihydropyridine-3,5-dicarboxylate], the “effect on SIRT1” value (human SIRT1) is reported as “negligible effects”, the SIRT1 activation (human SIRT1) is reported as 164% and the “effect on SIRT5” value (human SIRT5) is reported as “negligible effects”. The SIRT5 activation (human SIRT5) was 144%, the “effect on SIRT2” value (human SIRT2) was “negligible effects” and the SIRT2 activation (human SIRT2) was 130%.
